Measurements taken from patent publication US6750256B1, “Use of aromatic aldehydes as insecticides” (Proguard, Inc., priority 1994, dated 2004).

Legend:
[1] = test system: two-spotted spider mite, Tetranychus urticae; assay: Spider mite treated petri dish contact bioassay; assay type: in vivo; details: positive control, 10 ppm; 24 hours contact
Method: Activity of cinnamic aldehyde and/or coniferyl aldehyde against two-spotted spider mite, Tetranychus urticae is determined as follows. In a double blind experiment, intersurfaces of petri dishes (60 mm diameter) were treated with 100 μl of a test formulation and allowed to air dry and used within the hour. Twenty adult spider mites were put in each dish and the percent of mortality of the spider mites after 24 hours in contact with the treated dishes Was determined.

[2] = at 25° C.; cited from earlier work
[3] = test system: Adult human lice (Pediculus humanus); assay type: in vivo; details: 2% in water, lice submerged 1, 4 or 10 minutes
Method: Adult human lice (Pediculus humanus) were treated with α-butyl cinnamic aldehyde to determine its pediculicidal activity. […] For each of four replicates, 25 mixed sex lice were placed in a 9 dram plastic vial and covered with a screened plunger to keep the lice from floating to the surface. The vial containing the lice was dipped into a 100 ml beaker containing 2% α-butyl cinnamic aldehyde, which was dissolved in water or distilled water as a negative control. Lice were submerged in the 2% α-butyl cinnamic aldehyde for 1, 4 or 10 minutes. After this time, the test container was removed from the treatment, submerged in a 1000 mL beaker containing distilled water (32° C.) from a wash bottle. Subsequently, lice were allowed to recover in an incubator maintained at 31.7° C. in 60% RH (relative humidity) for 1 hour. Following the recovery period, lice were examined for their ability to move toward heat. For this observation, the lice were placed on a patch which was placed on a second patch that was on top of a slide warmer maintained at 37° C. Lice not dead or morbid (unable to move towards heat 1 hour after treatment; sickly, but not necessarily dying; may recover by 24 hours), will move to the lower patch. Lice again were examined for their ability to move towards 24 hours later. […]

[4] = test system: cat flea (Ctenocepalides felis); assay: Cat flea contact treatment on sprayed carpet plugs; assay type: in vivo; details: 72 hours
Method: The treatment of cat flea (Ctenocepalides felis) with various formulations containing alpha hexyl cinnamaldehyde is tested as follows. In a double blind experiment, variable concentrations of the formulae were tested for activity against cat flea (Ctenocepalides felis). The initial experiments tested alpha hexyl cinnamaldehyde at concentrations of 5%, 10% and 20% in 6% Tween 80. As controls, a formula blank containing 6% Tween 80 and negative control with no formulae were tested. Fleas were put in direct contact with the formulae and mortality was assessed both visually and by probing at 72 hours after contact.
Approximately […] of each formula concentration was sprayed on 0.279 square meter carpet section (DuPont) at 20 PSI. After allowing to air dry (20 minutes), four plugs each 14 cm in diameter were cut from each treated carpet section. One plug was used for each replicate for four total replications. For each treatment and replicate, 25 fleas were introduced on each plug. Plugs were then rolled and put in an escape proof, ventilated 2 liter container. After 72 hours mortality was assessed.

human subjects [5] = details: 12% in petrolatum; 48 hour closed-patch test on human subjects; cited from earlier work
rats = details: cited from earlier work
[6] = test system: thrips insects (Frankliniella occidentalis); assay: Residual activity on treated filter paper against thrips; assay type: in vivo; details: rehydrated 24 and 72 hours after spraying, thrips exposed one hour
Method: In the first experiment, two ml of two concentrations of CNMA (0.3 and 1%) were sprayed on filter paper (Whatman). As a negative control, two ml of water was also sprayed on filter paper. Twenty-four hours later, two ml of water were sprayed on treatment and control filter paper, which were then dried for 30 min. Approximately 30 thrips insects (Frankliniella occidentalis) were introduced onto the treated filter papers and the number of F. occidentalis were observed after one hour. Mean mortality was calculated for each treatment. After 72 hours, the treated filter papers were flipped over and only the negative control filter paper and the filter paper treated with 1% CNMA were sprayed with 2 ml of water and allowed to dry for 30 minutes. Approximately 30 thrips were introduced onto the two treated filter papers and after one hour the number of dead F. occidentalis were observed and the mean mortality calculated for each treatment. A similar assay was conducted using AHCNMA. Mean mortality was higher for rehydrated filter papers compared to non-rehydrated filter papers over time.

human subjects [7] = details: 20% in diethylphthalate; 100 human subjects; cited from earlier work
[8] = cited from earlier work

CNC(=O)Oc1cccc2ccccc12 [Sevin, reference compound]
Percent Mortality (24 hours) [1]: 100%

CCN(CC)c1cccc(C)c1 [N,N-diethyl-m-toluamine, reference compound]
vapor pressure [2]: 167×10^−5 mm Hg

CCCCC(C=O)=Cc1ccccc1 [α-butyl cinnamic aldehyde]
mortality ([3]; at 24 hours): 98.6% | knockdown ([3]; at the 1 hour time point): 100%

CCCCCCC(C=O)=Cc1ccccc1 [HCA, 2-(phenylmethylene) octanal]
Percent Mortality ([4]; 5% wt/vol in 6% Tween 80): 84% | Percent Mortality ([4]; 10% wt/vol in 6% Tween 80): 92% | Percent Mortality ([4]; 20% wt/vol in 6% Tween 80): 86% | flea mortality ([4]; all treatments (5%, 10% and 20% in 6% Tween 80)): greater than 80% | irritation (human subjects [5]): no irritation | oral LD50 (rats): 3100 mg/kg | residual activity in words [6]: residual activity | vapor pressure [2]: 70×10^−5 mm Hg | reactions in repeated insult patch test (human subjects [7]): no positive reactions | dermal LD50 [8]: greater than 3 g/kg
